According to patent US20070010670A1, “Nitrogen-containing fused ring compounds and use thereof” (Japan Tobacco Inc., priority 2004, published 2007):
pIC50: −log10 of the molar value.

molecular target: T1, CYP2C9 (Homo sapiens, UniProt P11712); assay: CYP inhibitory test using human liver microsome; format: in vitro ADME; conditions: model substrate diclofenac, 37° C. 10 min, read-out: CYP2C9 inhibition IC50
T1 construct: Human liver microsome (20 mg protein/mL, 5 μL, Xenotech LLC, purchased from Lenexa KS); tissue Xenotech LLC; host or cells: human liver microsome
T1 sequence (P11712 whole entry): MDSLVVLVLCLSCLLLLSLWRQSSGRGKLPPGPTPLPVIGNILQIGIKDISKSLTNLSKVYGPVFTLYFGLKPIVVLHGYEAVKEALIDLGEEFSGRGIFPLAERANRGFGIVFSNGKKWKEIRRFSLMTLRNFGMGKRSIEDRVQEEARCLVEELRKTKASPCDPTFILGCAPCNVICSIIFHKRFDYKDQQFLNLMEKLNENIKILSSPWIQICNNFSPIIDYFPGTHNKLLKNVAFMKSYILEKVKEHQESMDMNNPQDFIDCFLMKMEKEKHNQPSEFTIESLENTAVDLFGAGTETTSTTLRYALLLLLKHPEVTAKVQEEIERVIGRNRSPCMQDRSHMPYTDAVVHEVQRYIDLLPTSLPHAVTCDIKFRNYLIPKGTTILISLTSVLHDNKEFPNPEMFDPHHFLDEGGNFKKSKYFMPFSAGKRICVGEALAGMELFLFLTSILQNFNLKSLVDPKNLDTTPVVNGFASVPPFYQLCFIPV
Description: Human liver microsome (20 mg protein/mL, 5 μL, Xenotech LLC, purchased from Lenexa KS) was suspended in 100 mM potassium phosphate buffer (70 μL, pH 7.4), mixed with a solution (0.5 μL) of the Example compound dissolved in DMSO and preincubated at 37° C. for 5 min. NADPH producing system coenzyme solution (β-nicotinamide adenine dinucleotide phosphate: 5.2 mM, D-glucose-6-phosphate: 13.2 mM, magnesium chloride: 13.2 mM, glucose-6-phosphate dehydrogenase: 1.8 U/mL) 25 μL, and a model substrate (CYP3A4: midazolam 1 mM, CYP2D6: bufuralol 1 mM, CYP2C9: diclofenac 2 mM) 0.5 μL dissolved in DMSO were added to start the reaction. After incubation at 37° C. for 10 min., acetonitrile (200 μL) containing an internal standard substance (propranolol 1 μM) was added and the mixture was centrifuged (room temperature, 3000 rpm, 20 min). The amount of the metabolite produced from each model substrate in the supernatant was measured by high performance liquid chromatography/mass spectrometry (LC/MS/MS) and each CYP enzyme activity was determined. The concentration showing 50% inhibition (IC50) was calculated relative to the enzyme activity without addition of Example compound (DMSO 0.5 μL added) as 100%.

Structure (SMILES) | pIC50
O=C(c1cc(Cl)c(O)c(Cl)c1)N1CCNc2ccccc21 [Example 54, (3,5-dichloro-4-hydroxyphenyl)-(3,4-dihydro-2H-quinoxalin-1-yl)-methanone] | 4.32
COC(=O)c1cccc2c1N(C(=O)c1cc(Cl)c(O)c(Cl)c1)CCO2 [Example 58, methyl 4-(3,5-dichloro-4-hydroxybenzoyl)-3,4-dihydro-2H-benzo[1,4]oxazine-5-carboxylate] | 4.68
COC(=O)c1ccc2c(c1)OCCN2C(=O)c1cc(Cl)c(O)c(Cl)c1 [Example 59, methyl 4-(3,5-dichloro-4-hydroxybenzoyl)-3,4-dihydro-2H-benzo[1,4]oxazine-7-carboxylate] | 5.10
O=C(O)c1ccc2c(c1)OCCN2C(=O)c1cc(Cl)c(O)c(Cl)c1 [Example 60, 4-(3,5-dichloro-4-hydroxybenzoyl)-3,4-dihydro-2H-benzo[1,4]oxazine-7-carboxylic acid] | < 4.30
COC(=O)c1cccc2c1OCCN2C(=O)c1cc(Cl)c(O)c(Cl)c1 [Example 61, methyl 4-(3,5-dichloro-4-hydroxybenzoyl)-3,4-dihydro-2H-benzo[1,4]oxazine-8-carboxylate] | 4.37
O=C(c1cc(Cl)c(O)c(Cl)c1)N1c2ccccc2Oc2ccccc21 [Example 64, (3,5-dichloro-4-hydroxyphenyl)-phenoxazin-10-ylmethanone] | 5.22
Cc1cc(C)c2c(c1)N(C(=O)c1cc(Cl)c(O)c(Cl)c1)CCO2 [Example 66, (3,5-dichloro-4-hydroxyphenyl)-(6,8-dimethyl-2,3-dihydrobenzo[1,4]oxazin-4-yl)-methanone] | 4.92
Nc1ccc2c(c1)N(C(=O)c1cc(Cl)c(O)c(Cl)c1)CCO2 [Example 68, (6-amino-2,3-dihydrobenzo[1,4]oxazin-4-yl)-(3,5-dichloro-4-hydroxyphenyl)-methanone] | 4.57
O=C(c1cc(Br)c(O)c(Br)c1)N1CCOc2ccc([N+](=O)[O-])cc21 [Example 69, (3,5-dibromo-4-hydroxyphenyl)-(6-nitro-2,3-dihydrobenzo[1,4]oxazin-4-yl)-methanone] | 4.68
O=C(c1cc(Cl)c(O)c(Cl)c1)N1CCOc2cc([N+](=O)[O-])ccc21 [Example 70, (3,5-dichloro-4-hydroxyphenyl)-(7-nitro-2,3-dihydrobenzo[1,4]oxazin-4-yl)-methanone] | 4.70
Nc1ccc2c(c1)OCCN2C(=O)c1cc(Cl)c(O)c(Cl)c1 [Example 71, (7-amino-2,3-dihydrobenzo[1,4]oxazin-4-yl)-(3,5-dichloro-4-hydroxyphenyl)-methanone] | 4.82
CS(=O)(=O)Nc1ccc2c(c1)OCCN2C(=O)c1cc(Cl)c(O)c(Cl)c1 [Example 72, N-[4-(3,5-dichloro-4-hydroxybenzoyl)-3,4-dihydro-2H-benzo[1,4]oxazin-7-yl]-methanesulfonamide] | 4.89
CN1CCN(C(=O)c2cc(Cl)c(O)c(Cl)c2)c2ccccc21 [Example 74, (3,5-dichloro-4-hydroxyphenyl)-(4-methyl-3,4-dihydro-2H-quinoxalin-1-yl)-methanone] | 4.48
O=C(c1ccc(O)c([N+](=O)[O-])c1)N1CCOc2ccccc21 [Example 75, (2,3-dihydrobenzo[1,4]oxazin-4-yl)-(4-hydroxy-3-nitrophenyl)-methanone] | < 4.30
Nc1ccc2c(c1)CCN2C(=O)c1cc(Cl)c(O)c(Cl)c1 [Example 78, (5-amino-2,3-dihydroindol-1-yl)-(3,5-dichloro-4-hydroxyphenyl)-methanone] | 4.74
CS(=O)(=O)N1CCN(C(=O)c2cc(Cl)c(O)c(Cl)c2)c2ccccc21 [Example 83, (3,5-dichloro-4-hydroxyphenyl)-(4-methanesulfonyl-3,4-dihydro-2H-quinoxalin-1-yl)-methanone] | < 4.30
CCS(=O)(=O)c1ccc2c(c1)N(C(=O)c1cc(Cl)c(O)c(Cl)c1)CCO2 [Example 84, (3,5-dichloro-4-hydroxyphenyl)-(6-ethanesulfonyl-2,3-dihydrobenzo[1,4]oxazin-4-yl)-methanone] | 4.82
O=C(c1cc(Cl)c(O)c(Cl)c1)N1CCOc2ccc(C(F)(F)F)cc21 [Example 85, (3,5-dichloro-4-hydroxyphenyl)-(6-trifluoromethyl-2,3-dihydrobenzo[1,4]oxazin-4-yl)-methanone] | 4.72
COc1c(Cl)cc(C(=O)N2CCOc3ccccc32)cc1Cl [Example 86, (3,5-dichloro-4-methoxyphenyl)-(2,3-dihydrobenzo[1,4]oxazin-4-yl)-methanone] | < 4.30
O=C(O)COc1c(Cl)cc(C(=O)N2CCOc3ccccc32)cc1Cl [Example 92, [2,6-dichloro-4-(2,3-dihydrobenzo[1,4]oxazine-4-carbonyl)phenoxy]acetic acid] | < 4.30

Continued, values first:

pIC50 | Structure (SMILES)
5.22 | O=C(c1cc(Cl)c(O)c(Cl)c1)N1CCN(C(=O)c2cc(Cl)c(O)c(Cl)c2)c2ccccc21 [Example 53, [4-(3,5-dichloro-4-hydroxybenzoyl)-3,4-dihydro-2H-quinoxalin-1-yl]-(3,5-dichloro-4-hydroxyphenyl)-methanone]
4.72 | COC(=O)c1ccc2c(c1)N(C(=O)c1cc(Cl)c(O)c(Cl)c1)CCO2 [Example 55, methyl 4-(3,5-dichloro-4-hydroxybenzoyl)-3,4-dihydro-2H-benzo[1,4]oxazine-6-carboxylate]
< 4.30 | O=C(c1cc(Cl)c(O)c(Cl)c1)N1CCOc2ccc(CO)cc21 [Example 56, (3,5-dichloro-4-hydroxyphenyl)-(6-hydroxymethyl-2,3-dihydrobenzo[1,4]oxazin-4-yl)-methanone]
< 4.30 | O=C(O)c1ccc2c(c1)N(C(=O)c1cc(Cl)c(O)c(Cl)c1)CCO2 [Example 57, 4-(3,5-dichloro-4-hydroxybenzoyl)-3,4-dihydro-2H-benzo[1,4]oxazine-6-carboxylic acid]
< 4.30 | O=C(O)c1cccc2c1OCCN2C(=O)c1cc(Cl)c(O)c(Cl)c1 [Example 62, 4-(3,5-dichloro-4-hydroxybenzoyl)-3,4-dihydro-2H-benzo[1,4]oxazine-8-carboxylic acid]
< 4.30 | O=C(c1cc(Cl)cc(Cl)c1)N1CCOc2ccccc21 [Example 63, (3,5-dichlorophenyl)-(2,3-dihydrobenzo[1,4]oxazin-4-yl)-methanone]
4.85 | O=C(c1cc(Cl)c(O)c(Cl)c1)N1CCOc2ccc(-c3ccccc3)cc21 [Example 65, (3,5-dichloro-4-hydroxyphenyl)-(6-phenyl-2,3-dihydrobenzo[1,4]oxazin-4-yl)-methanone]
4.31 | O=C(c1cc(Cl)c(O)c(Cl)c1)N1CCOc2ccc([N+](=O)[O-])cc21 [Example 67, (3,5-dichloro-4-hydroxyphenyl)-(6-nitro-2,3-dihydrobenzo[1,4]oxazin-4-yl)-methanone]
< 4.30 | CC(=O)N1CCN(C(=O)c2cc(Cl)c(O)c(Cl)c2)c2ccccc21 [Example 73, 1-[4-(3,5-dichloro-4-hydroxybenzoyl)-3,4-dihydro-2H-quinoxalin-1-yl]-ethanone]
4.74 | O=C(c1cc(Cl)c(O)c(Cl)c1)N1CCc2ccccc21 [Example 77, (3,5-dichloro-4-hydroxyphenyl)-(2,3-dihydroindol-1-yl)-methanone]
4.89 | O=C(c1cc(Br)c(O)c(Br)c1)N1CCOc2ccc(F)cc21 [Example 79, (3,5-dibromo-4-hydroxyphenyl)-(6-fluoro-2,3-dihydrobenzo[1,4]oxazin-4-yl)-methanone]
5.30 | O=C(c1cc(Br)c(O)c(Br)c1)N1CCOc2ccc3ccccc3c21 [Example 80, (3,5-dibromo-4-hydroxyphenyl)-(2,3-dihydronaphtho[2,1-b][1,4]oxazin-1-yl)-methanone]
4.89 | Cc1ccc2c(c1)N(C(=O)c1cc(Br)c(O)c(Br)c1)CCO2 [Example 81, (3,5-dibromo-4-hydroxyphenyl)-(6-methyl-2,3-dihydrobenzo[1,4]oxazin-4-yl)-methanone]
4.96 | O=C(c1cc(Br)c(O)c(Br)c1)N1CCOc2ccc(Cl)cc21 [Example 82, (6-chloro-2,3-dihydrobenzo[1,4]oxazin-4-yl)-(3,5-dibromo-4-hydroxyphenyl)-methanone]
4.51 | CC(=O)Oc1c(Cl)cc(C(=O)N2CCOc3ccccc32)cc1Cl [Example 87, 2,6-dichloro-4-(2,3-dihydrobenzo[1,4]oxazine-4-carbonyl)-phenyl acetate]
< 4.30 | O=C(c1ccc(O)cc1)N1CCOc2ccccc21 [Example 88, (2,3-dihydrobenzo[1,4]oxazin-4-yl)-(4-hydroxyphenyl)-methanone]
4.96 | O=C(c1cc(Cl)c(O)c(Cl)c1)N1CCOc2cccc(O)c21 [Example 89, (3,5-dichloro-4-hydroxyphenyl)-(5-hydroxy-2,3-dihydrobenzo[1,4]oxazin-4-yl)-methanone]
4.68 | O=C(c1cc(Cl)c(O)c(Cl)c1)N1CCOc2c(O)cccc21 [Example 90, (3,5-dichloro-4-hydroxyphenyl)-(8-hydroxy-2,3-dihydrobenzo[1,4]oxazin-4-yl)-methanone]
< 4.30 | CCOC(=O)COc1c(Cl)cc(C(=O)N2CCOc3ccccc32)cc1Cl [Example 91, ethyl [2,6-dichloro-4-(2,3-dihydrobenzo[1,4]oxazine-4-carbonyl)phenoxy]acetate]
